# US20260184726A1, “HETEROCYCLIC COMPOUNDS AS KINASE INHIBITORS, COMPOSITIONS, AND METHODS OF USE THEREOF” (JS INNOMED HOLDINGS LTD., priority 2022, published 2026)
# Where two headings read alike, the source gives them in different places.
# Assays:
# [1] = biological target: T1, Ba/F3-KIF5B-RET-V804M cells (Homo sapiens, UniProt P07949, V804M, cells depend on it); assay: Ba/F3-KIF5B-RET-V804M Cell Proliferation Assay (CellTiter-Glo); assay type: cell-based; conditions: growth inhibition, 72 hours; Table 3; read-out: BZ/F3-KIF5B-RET V804M
# T1 construct: fused on or other part: P33176 (Kinesin-1 heavy chain)
# Procedure: (§1) Compounds disclosed herein were tested for the inhibition of RET by a cancer cell proliferation assay commonly known as CellTiter-Glo assay. In this assay, a complete media was prepared by adding 10% fetal bovine serum to RPMI-1640 medium (Life technology) for RET-driven cancer cells (BAF3-FIF5B-RET, Ba/F3-KIF5B-RET-G810R, Ba/F3-TEL-RET-M918T or Ba/F3-KIF5B-RET-V804M). Individual RET-driven type of cells were added to each of 88 wells of a 96 well plate at a seeding density of 2,000 cells/well/95 μL. The cells were allowed to attach to the plate by incubating at 37° C. for 24 hours. The compound was dissolved in DMSO (SIGMA). A solution of test compound was prepared in complete media by serial dilution to obtain the following concentrations: 20 μM, 6.67 μM, 2.22 μM, 0.74 μM, 0.25 μM, 0.082 μM, 0.027 μM, 0.0091 μM and 0.0030 μM. The test compound solution (5 μL) was added to each of 80 cell-containing wells. The final concentrations of the compound were following: 1 μM, 0.33 μM, 0.11 μM, 0.037 μM, 0.012 μM, 0.0041 μM, 0.0014 μM, 0.00046 μM and 0.00015 μM. The final concentration of DMSO is 0.1%. To the 8 remaining cell-containing wells, only complete media (containing 0.1% DMSO) was added to form a control group in order to measure maximal proliferation. To the remaining 8 empty wells, complete media was added to for a vehicle control group in order to measure background. The plates were incubated at 37° C. for 72 hours. 50 μl of CellTiter-Glo® Reagent was added to each well. Mix contents for 2 minutes on an orbital shaker to induce cell lysis. Incubate at room temperature for 10 minutes to stabilize luminescent signal. Record luminescence on Paradigm. Cell viability (CV %) was calculated relative to vehicle (DMSO) treated control wells. The IC50 was calculated using GraphPad Prism.
# human Aurora B kinase = biological target: T2, human Aurora B kinase (Homo sapiens, UniProt Q96GD4); assay: Aurora B Kinase Assay (mobility shift assay, ATP at Km); assay type: biochemical; conditions: 15 μM ATP (Km), read-out: AurB Enzymatic Activity
# T2 construct: purchased Carna 05-102
# Procedure: Compounds were tested by Mobility shift assay with ATP concentration at Km. The assay used human Aurora B kinase (Carna 05-102). Test compounds were prepared and diluted in DMSO in 3-fold serial dilutions to 50× of the final testing concentrations. The compounds were then further diluted to 5× by the kinase reaction buffer (50 mM HEPES pH 7.5, 0.0015% Brij-35). The enzymatic reaction for compound testing was performed in a white 384-well polypropylene plate (Corning 3573) with a total reaction volume of 25 μl containing 9 nM Aurora B, 3 μM peptide substrate FAM-P21 (GL Biochem 116370), and 15 μM ATP (Sigma A7699-1G). The assay started with loading Aurora B diluted in kinase reaction buffer to wells, followed by addition of equal volume of 5× compounds for 15-min incubation at the room temperature for pre-treatment. The enzymatic reaction was initiated by addition of mixture of the substrate and ATP prepared in kinase reaction buffer. After incubation at 28° C. for one hour, 25 μl of stopper buffer (a mixture of 100 mM HEPES pH 7.5 buffer, 0.015% Brij-35, 50 mM EDTA and 0.2% of coating reagent 3 (Cliper Lifesciences)). After 30 minutes of incubation at room temperature, the plate was read in a Caliper. Percent of control was calculated as the percentage of compound-treated vs 2% DMSO vehicle-treated. The dose-response curves were generated and the IC50 values were calculated by nonlinear sigmoid curve fitting using XLFit.
# BAF3 cells = assay: BAF3 Cell Proliferation Assay (CellTiter-Glo, without RET driven, IL-3); assay type: cell-based; conditions: Mus musculus; growth inhibition in BAF3 cells, 72 hours, with IL-3; read-out: BAF3 Cellular Activity
# Outline: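 BAF3 cells in RPMI-1640 with 10% FBS and 1 ng/ml IL-3, seeded 2,000/well and settled 24 h at 37 °C, then exposed to compound at final 10 μM down to 0.0015 μM (0.1% DMSO) for 72 h. Viability by CellTiter-Glo luminescence versus DMSO controls; IC50 from curve fit.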
# [2] = biological target: BA/F3-KIF5B-RET M918T cells (Homo sapiens, UniProt P07949, M918T, cells depend on it, form not given); assay: Ba/F3 RET-M918T Cell Proliferation Assay (CellTiter-Glo); assay type: cell-based; conditions: growth inhibition, 72 hours; Table 3
# Procedure: as §1
# BAF3-KIF5B-RET cells = biological target: T3, BAF3-KIF5B-RET cells (Homo sapiens, UniProt P07949); assay: BAF3-KIF5B-RET Cell Proliferation Assay (CellTiter-Glo); assay type: cell-based; conditions: growth inhibition, 72 hours
# T3 construct: fused on or other part: P33176 (Kinesin-1 heavy chain)
# Outline: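 Ba/F3 cells driven by KIF5B-RET (wild-type, V804M or G810R) or TEL-RET-M918T, 2,000 per well in RPMI/10% FBS, attached 24 h. Treated 72 h at 37° C with compound from 0.00015 to 1 μM final, 0.1% DMSO. CellTiter-Glo luminescence relative to DMSO wells gave IC50.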
# human RET kinase = biological target: T4, human RET kinase (Homo sapiens, UniProt P07949); assay: RET Kinase Assay (mobility shift assay, ATP at Km); assay type: biochemical; conditions: 23 μM ATP (Km), read-out: RET Enzymatic Activity
# T4 construct: purchased Carna 08-159
# Procedure: Compounds were tested by Mobility shift assay with ATP concentration at Km. The assay used human RET kinase (Carna 08-159). Test compounds were prepared and diluted in DMSO in 3-fold serial dilutions to 50× of the final testing concentrations. The compounds were then further diluted to 5× by the kinase reaction buffer (50 mM HEPES pH 7.5, 0.0015% Brij-35). The enzymatic reaction for compound testing was performed in a white 384-well polypropylene plate (Corning 3573) with a total reaction volume of 25 μl containing 7 nM RET, 3 μM peptide substrate FAM-P2 (GL Biochem 112394), and 23 μM ATP (Sigma A7699-1G). The assay started with loading RET diluted in kinase reaction buffer to wells, followed by addition of equal volume of 5× compounds for 15-min incubation at the room temperature for pre-treatment. The enzymatic reaction was initiated by addition of mixture of the substrate and ATP prepared in kinase reaction buffer. After incubation at 28° C. for one hour, 25 μl of stopper buffer (a mixture of 100 mM HEPES pH 7.5 buffer, 0.015% Brij-35, 50 mM EDTA and 0.2% of coating reagent 3 (Cliper Lifesciences)). After 30 minutes of incubation at room temperature, the plate was read in a Caliper. Percent of control was calculated as the percentage of compound-treated vs 2% DMSO vehicle-treated. The dose-response curves were generated and the IC50 values were calculated by nonlinear sigmoid curve fitting using XLFit.
# [3] = biological target: T5, Ba/F3-KIF5B-RET-G810R cells (Homo sapiens, UniProt P07949, G810R, cells depend on it); assay: Ba/F3-KIF5B-RET-G810R Cell Proliferation Assay (CellTiter-Glo); assay type: cell-based; conditions: growth inhibition, 72 hours; Table 3
# T5 construct: fused on or other part: P33176 (Kinesin-1 heavy chain)
# Procedure: as §1
# human KDR kinase = biological target: T6, human KDR kinase (Homo sapiens, UniProt P35968); assay: KDR Kinase Assay (mobility shift assay, ATP at Km); assay type: biochemical; conditions: 92 μM ATP (Km), read-out: KDR Enzymatic Activity
# T6 construct: purchased Carna 08-191
# Procedure: Compounds were tested by Mobility shift assay with ATP concentration at Km. The assay used human KDR kinase (Carna 08-191). Test compounds were prepared and diluted in DMSO in 3-fold serial dilutions to 50× of the final testing concentrations. The compounds were then further diluted to 5× by the kinase reaction buffer (50 mM HEPES pH 7.5, 0.0015% Brij-35). The enzymatic reaction for compound testing was performed in a white 384-well polypropylene plate (Corning 3573) with a total reaction volume of 25 μl containing 1.2 nM KDR, 3 μM peptide substrate FAM-P22 (GL Biochem 112393), and 92 μM ATP (Sigma A7699-1G). The assay started with loading RET diluted in kinase reaction buffer to wells, followed by addition of equal volume of 5× compounds for 15-min incubation at the room temperature for pre-treatment. The enzymatic reaction was initiated by addition of mixture of the substrate and ATP prepared in kinase reaction buffer. After incubation at 28° C. for one hour, 25 μl of stopper buffer (a mixture of 100 mM HEPES pH 7.5 buffer, 0.015% Brij-35, 50 mM EDTA and 0.2% of coating reagent 3 (Cliper Lifesciences)). After 30 minutes of incubation at room temperature, the plate was read in a Caliper. Percent of control was calculated as the percentage of compound-treated vs 2% DMSO vehicle-treated. The dose-response curves were generated and the IC50s were calculated by nonlinear sigmoid curve fitting using XLFit.
# [4] = Table 2, read-out: BA/F3-KIF5B-RET Cellular activity
# [5] = Table 3, read-out: BA/F3-KIF5B-RET
# T1 sequence (P07949 whole entry V804M, the tested form may be a part): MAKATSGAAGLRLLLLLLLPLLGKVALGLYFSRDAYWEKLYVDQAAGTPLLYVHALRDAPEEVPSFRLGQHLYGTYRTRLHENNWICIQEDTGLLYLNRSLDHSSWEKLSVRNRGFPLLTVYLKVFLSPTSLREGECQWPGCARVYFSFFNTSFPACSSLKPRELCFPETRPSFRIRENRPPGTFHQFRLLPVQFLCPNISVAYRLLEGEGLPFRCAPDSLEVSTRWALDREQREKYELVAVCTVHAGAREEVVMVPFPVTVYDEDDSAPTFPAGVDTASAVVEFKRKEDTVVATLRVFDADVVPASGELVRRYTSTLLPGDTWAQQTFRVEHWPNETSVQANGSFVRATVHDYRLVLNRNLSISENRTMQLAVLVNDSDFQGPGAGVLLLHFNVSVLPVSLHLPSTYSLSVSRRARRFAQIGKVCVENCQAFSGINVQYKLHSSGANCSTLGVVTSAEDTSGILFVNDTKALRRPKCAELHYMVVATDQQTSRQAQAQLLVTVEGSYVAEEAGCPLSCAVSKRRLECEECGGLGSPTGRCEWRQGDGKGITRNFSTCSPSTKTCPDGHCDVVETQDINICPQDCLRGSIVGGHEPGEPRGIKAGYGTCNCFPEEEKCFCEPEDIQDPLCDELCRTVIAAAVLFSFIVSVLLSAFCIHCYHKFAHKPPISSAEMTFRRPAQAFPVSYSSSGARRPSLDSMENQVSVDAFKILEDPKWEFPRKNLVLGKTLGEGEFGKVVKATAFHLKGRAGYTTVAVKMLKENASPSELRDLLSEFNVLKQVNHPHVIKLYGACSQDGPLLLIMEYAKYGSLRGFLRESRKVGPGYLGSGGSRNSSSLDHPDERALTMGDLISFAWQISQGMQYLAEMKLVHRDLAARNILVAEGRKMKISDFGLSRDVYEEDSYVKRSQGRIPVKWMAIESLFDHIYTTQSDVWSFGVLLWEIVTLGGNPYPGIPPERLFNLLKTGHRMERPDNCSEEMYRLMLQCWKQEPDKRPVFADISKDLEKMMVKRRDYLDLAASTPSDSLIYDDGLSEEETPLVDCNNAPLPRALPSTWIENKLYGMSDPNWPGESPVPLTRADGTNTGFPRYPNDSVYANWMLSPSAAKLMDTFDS
# T3 sequence (P07949 whole entry, change not shown, the tested form may be a part): as the sequence (P07949 whole entry V804M, the tested form may be a part) above, with M804V counted along it
# T5 sequence (P07949 whole entry G810R, the tested form may be a part): as the sequence (P07949 whole entry V804M, the tested form may be a part) above, with M804V, G810R counted along it
# Sequence of BA/F3-KIF5B-RET M918T cells (P07949 whole entry M918T, form open): as the sequence (P07949 whole entry V804M, the tested form may be a part) above, with M804V, M918T counted along it
# T4 sequence (P07949 29-1114): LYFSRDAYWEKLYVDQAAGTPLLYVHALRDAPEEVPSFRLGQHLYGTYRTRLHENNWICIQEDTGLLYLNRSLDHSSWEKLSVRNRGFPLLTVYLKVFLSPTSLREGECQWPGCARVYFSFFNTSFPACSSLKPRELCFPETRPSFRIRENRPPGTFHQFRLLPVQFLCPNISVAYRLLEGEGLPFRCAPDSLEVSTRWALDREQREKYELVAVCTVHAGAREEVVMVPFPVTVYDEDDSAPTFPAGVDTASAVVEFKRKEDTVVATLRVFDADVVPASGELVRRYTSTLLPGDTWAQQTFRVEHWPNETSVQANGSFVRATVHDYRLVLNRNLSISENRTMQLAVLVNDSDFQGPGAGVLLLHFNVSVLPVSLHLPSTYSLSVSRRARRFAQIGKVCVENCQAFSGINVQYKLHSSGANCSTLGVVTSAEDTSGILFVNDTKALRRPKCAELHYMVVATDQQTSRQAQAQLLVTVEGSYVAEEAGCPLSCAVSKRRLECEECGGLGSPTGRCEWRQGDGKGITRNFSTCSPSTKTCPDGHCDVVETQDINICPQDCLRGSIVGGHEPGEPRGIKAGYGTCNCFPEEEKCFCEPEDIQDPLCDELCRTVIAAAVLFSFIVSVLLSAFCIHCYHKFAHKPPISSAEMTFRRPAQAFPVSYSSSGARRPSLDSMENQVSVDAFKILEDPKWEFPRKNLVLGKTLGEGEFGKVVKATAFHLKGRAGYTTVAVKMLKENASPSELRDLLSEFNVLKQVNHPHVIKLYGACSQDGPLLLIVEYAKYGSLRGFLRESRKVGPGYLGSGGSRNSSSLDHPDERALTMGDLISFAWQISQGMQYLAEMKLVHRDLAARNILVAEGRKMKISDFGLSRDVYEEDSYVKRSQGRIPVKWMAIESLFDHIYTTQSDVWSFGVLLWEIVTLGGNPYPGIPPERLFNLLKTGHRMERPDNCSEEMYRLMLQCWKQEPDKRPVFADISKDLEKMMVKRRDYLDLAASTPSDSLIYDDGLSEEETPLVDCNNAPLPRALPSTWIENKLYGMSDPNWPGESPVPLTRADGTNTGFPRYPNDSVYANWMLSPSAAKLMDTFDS
# T6 sequence (P35968 20-1356): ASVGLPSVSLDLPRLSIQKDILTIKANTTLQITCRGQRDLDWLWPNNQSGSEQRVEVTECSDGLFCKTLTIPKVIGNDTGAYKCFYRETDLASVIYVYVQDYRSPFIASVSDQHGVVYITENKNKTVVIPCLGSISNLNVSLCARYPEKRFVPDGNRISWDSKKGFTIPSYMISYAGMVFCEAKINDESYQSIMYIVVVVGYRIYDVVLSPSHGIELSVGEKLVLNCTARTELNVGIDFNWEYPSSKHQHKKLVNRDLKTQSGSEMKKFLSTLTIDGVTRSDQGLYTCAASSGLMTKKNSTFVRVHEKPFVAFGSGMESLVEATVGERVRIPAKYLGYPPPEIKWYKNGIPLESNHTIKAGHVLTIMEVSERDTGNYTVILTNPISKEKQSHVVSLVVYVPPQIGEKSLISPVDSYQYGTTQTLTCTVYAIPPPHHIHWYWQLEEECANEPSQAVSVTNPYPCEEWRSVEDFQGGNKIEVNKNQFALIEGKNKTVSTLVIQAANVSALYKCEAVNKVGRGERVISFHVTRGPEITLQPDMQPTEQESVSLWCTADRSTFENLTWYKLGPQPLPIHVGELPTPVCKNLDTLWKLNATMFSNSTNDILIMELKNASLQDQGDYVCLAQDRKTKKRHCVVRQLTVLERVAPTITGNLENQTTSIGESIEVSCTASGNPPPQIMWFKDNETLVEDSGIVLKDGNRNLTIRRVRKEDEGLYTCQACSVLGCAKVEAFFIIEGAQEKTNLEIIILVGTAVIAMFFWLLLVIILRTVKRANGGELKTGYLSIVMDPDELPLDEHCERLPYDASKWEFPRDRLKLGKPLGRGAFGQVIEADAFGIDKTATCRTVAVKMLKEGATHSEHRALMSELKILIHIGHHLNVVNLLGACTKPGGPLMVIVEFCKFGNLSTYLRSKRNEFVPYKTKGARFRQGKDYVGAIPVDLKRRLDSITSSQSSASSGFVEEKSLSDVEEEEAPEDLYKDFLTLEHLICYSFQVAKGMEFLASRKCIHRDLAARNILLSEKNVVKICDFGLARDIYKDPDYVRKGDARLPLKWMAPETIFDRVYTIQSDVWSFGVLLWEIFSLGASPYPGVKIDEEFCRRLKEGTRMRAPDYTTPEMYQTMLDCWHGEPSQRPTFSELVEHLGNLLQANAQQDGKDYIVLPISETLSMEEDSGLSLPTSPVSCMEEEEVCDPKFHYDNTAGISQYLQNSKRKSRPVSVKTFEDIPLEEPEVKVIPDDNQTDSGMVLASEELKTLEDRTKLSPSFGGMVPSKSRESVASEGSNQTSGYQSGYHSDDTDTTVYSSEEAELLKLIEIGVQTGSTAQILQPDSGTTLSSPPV
# T2 sequence (Q96GD4 whole entry): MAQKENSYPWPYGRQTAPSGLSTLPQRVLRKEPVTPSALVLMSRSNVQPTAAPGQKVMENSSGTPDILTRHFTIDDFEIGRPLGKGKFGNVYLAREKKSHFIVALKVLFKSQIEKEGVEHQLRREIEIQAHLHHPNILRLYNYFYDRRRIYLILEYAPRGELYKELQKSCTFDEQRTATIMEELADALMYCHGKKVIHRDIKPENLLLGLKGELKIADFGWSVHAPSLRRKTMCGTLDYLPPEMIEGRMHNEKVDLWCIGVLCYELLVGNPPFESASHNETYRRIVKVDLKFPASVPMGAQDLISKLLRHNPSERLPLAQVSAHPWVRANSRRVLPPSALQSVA
# T2 sequence (Q9NQS7 803-918 partner limits assumed): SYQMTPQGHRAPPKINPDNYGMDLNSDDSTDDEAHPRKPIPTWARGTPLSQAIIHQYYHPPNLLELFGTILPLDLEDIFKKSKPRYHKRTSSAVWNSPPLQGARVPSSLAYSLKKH
GI50 [1],GI50 [2],GI50 (BAF3-KIF5B-RET cells; [5]),GI50 [3],IC50 (human KDR kinase),SMILES,IC50 (human Aurora B kinase),IC50 (BAF3 cells),GI50 (BAF3-KIF5B-RET cells; [4]),IC50 (human RET kinase)
3.9 nM,18.4 nM,0.7 nM,59.4 nM,21 nM,"CC(C)(O)c1ccc(-c2cc(-c3cnc(N4C5CC6CC4CC(NC(=O)c4ncccc4Cl)(C6)C5)cn3)c3c(C#N)cnn3c2)nc1 [Example 18, 3-chloro-N-((1R,3S,5s,7s)-2-(5-(3-cyano-6-(5-(2-hydroxypropan-2-yl)pyridin-2-yl)pyrazolo[1,5-a]pyridin-4-yl)pyrazin-2-yl)-2-azaadamantan-5-yl)picolinamide]",,1170 nM,0.7 nM,1.4 nM
43.6 nM,46.9 nM,3.3 nM,624 nM,,"COc1ccc(CN2C3CC2CN(c2ccc(-c4cc(OCC(C)(C)O)cn5ncc(C#N)c45)cn2)C3)cn1 [Loxo-292, reference compound]",,,,

SMILES,GI50 [1],GI50 [2],GI50 (BAF3-KIF5B-RET cells; [5]),GI50 [3],IC50 (human KDR kinase),IC50 (human Aurora B kinase),IC50 (BAF3 cells),GI50 (BAF3-KIF5B-RET cells; [4]),IC50 (human RET kinase)
"COc1ccc(CN2C3CC2CN(c2ccc(-c4cc(-c5ccc(C(C)(C)O)cn5)cn5ncc(C#N)c45)cn2)C3)cn1 [Example 9, 6-(5-(2-hydroxypropan-2-yl)pyridin-2-yl)-4-(6-(6-((6-methoxypyridin-3-yl)methyl)-3,6-diazabicyclo[3.1.1]heptan-3-yl)pyridin-3-yl)pyrazolo[1,5-a]pyridine-3-carbonitrile]",4.8 nM,13.2 nM,0.6 nM,54.6 nM,,80 nM,1130 nM,0.6 nM,0.58 nM
